Laboratory results as given in US20050245606A1, “High-efficiency fullerene-based radical scavengers” (Nano-C, Inc., priority 2003, published 2005).

Test: Scavenging of cigarette smoke radicals in decalin, read out by DHR 6G fluorescence
Format: biochemical
Description: Tests were conducted to study the effectiveness of methanofullerene derivatives against radicals present in cigarette smoke (predominantly peroxyl radical). The cigarette smoke was bubbled through a glass frit into a solvent (decalin) in which radical scavengers were dissolved. The smoke then exited this solvent and was passed through a second flask, in which a fluorescent probe that fluoresces upon oxidation by radicals was used (Dihydrorhodamine 6G (DHR 6G), purchased from Molecular Probes). The variation of fluorescent signal corresponds directly to the radical content of the cigarette smoke, and thus a measure of the reduction of radicals by the radical scavenger is measured. Signals were measured every 10 seconds.
Tests were conducted to study the sensitivity of the test apparatus in Example 1 to varying concentrations of Vitamin E as a radical scavenger to scavenge radicals present in cigarette smoke (predominantly peroxyl radical). The cigarette smoke was bubbled through a cylindrical, coarse glass frit into a solvent (decalin) in which radical scavengers were dissolved. The smoke then exited this solvent and was passed through a second flask, in which a fluorescent probe that fluoresces upon oxidation by radicals was used (Dihydrorhodamine 6G (DHR 6G), purchased from Molecular Probes). The variation of fluorescent signal corresponds directly to the radical content of the cigarette smoke, and thus a measure of the reduction of radicals by the radical scavenger is measured. Signals were measured every 10 seconds.

Molecule	difference in fluorescence signal / radical scavenging efficiency versus Vitamin E (300 μM PCBM versus 300 μM Vitamin E)	reduction of radicals by the radical scavenger (fluorescent signal of DHR 6G) (scavenger dissolved in decalin, comparison with Vitamin E under identical conditions, FIG. 6A)	change of fluorescent signal on doubling the scavenger concentration (150 μM versus 300 μM in decalin, FIG. 6B)
COC(=O)CCCC1(c2ccccc2)C23C=Cc4cc5c6c7c4C21c1c2c4c(cc8ccc9cc(c6c6c9c8c4c6c17)C5)CC2=C3 (stereo not drawn) [PCBM, [6,6]-phenyl C61-butyric acid methyl ester]	very large difference in radical scavenging efficiency	scavenges significantly more of the radicals present in the cigarette smoke than Vitamin E	–
Vitamin E [reference compound]	–	–	very small deflection
